Legend:
[1] = SRB cell viability, isogenic breast cell lines; type: cell-based; settings: human, MCF10AT1 cells (pre-malignant breast cells), 31.25 nM
Method: (§1) FIG. 9 illustrates that CTR-17, CTR-20, CTR-21 and CTR-32 preferentially kill the fully malignant […] breast cancer cells over the pre-malignant MCF10AT1 and the non-malignant MCF-10A breast cells. Cells were treated with (A) CTR-17 at doses of 0.10, 0.39, 1.56 or 6.25 μM; (B) CTR-20 at doses of 0.10, 0.39, 1.56 or 6.25 μM; (C) CTR-21 at doses of 7.81, 15.63, 31.25, 62.5, 125 or 250 nM; or (D) CTR-32 at doses of 7.81, 15.63, 31.25, 62.5, 125 or 250 nM for 72 hours. Cell viability was determined using an SRB assay.
(§2) All of the cell lines used were purchased from ATCC and cultured in RPMI-1640 supplemented with 10% fetal bovine serum and antibiotics (100 units penicillin/100 μg/ml streptomycin), unless stated otherwise. 1845B5 and MCF-10A non-cancer breast cell lines were cultured in DME/F12 medium supplemented with 10% fetal bovine serum, antibiotics and growth factors. KB-3-1 is a human epidermal carcinoma cell line and KB-C-2 is its isogenic multidrug-resistant cell line with over-expressing ABCB1/P-gp. […] The human small cell lung carcinoma H69 cell line and its multidrug-resistant MRP1-overexpressing isogenic H69AR cell line were purchased from ATCC. The H69AR cell line was established in the presence of increasing concentrations of Adriamycin (doxorubicin). H69 cells grow as large multi-cell aggregates, making it difficult to accurately count cell numbers. Therefore, the cytotoxicity results obtained from H69AR cells were compared to SW1271, a small cell lung carcinoma cell line without a multidrug-resistant phenotype. The IL-6 dependent bortezomib-resistant ANBL6-BR cell line was further supplemented with 1 ng/ml of IL-6. The MCF10AT1 and MCF10CA1a cell lines are isogenic to the MCF10A cell line, and obtained from Dr. Valerie Weaver at the Center for Bioengineering and Tissue Regeneration, UCSF, CA, USA. MCF10AT1 is a premalignant cell line generated by transforming MCF10A with c-Ha-Ras; and MCF10CA1a was isolated by selecting malignant cells after MCF10AT1 cells were engrafted into mice (Liu & Lin 2004; Marella et al. 2009). The MCF10AT1 and MCF10CA1a cells were cultured in DMEM supplemented with 10% FBS (volume/volume). MDA-MB231TaxR cell line was generated in house by culturing MDA-MB231 cells in gradually increasing doses of paclitaxel over one-year period, and finally maintained at 100 nM paclitaxel. The drug-resistant cells were cultured in the absence of drug for at least one passage before carrying out experiments. All cells were maintained in a humidified incubator at 37° C. (5% CO2/95% air). Cell line authentication was performed using short tandem repeat (STR) profiling.
(§3) For (anti)proliferation assays, 4,000-5,000 cells/well of the 96-well clustered dish were incubated for 16 hours, as described previously (Hu et al., 2008; Skehan et al., 1990). After 16 hours, culture medium was replaced with fresh medium containing different dilutions of test compounds dissolved in DMSO. Some wells were treated with 100 μl of 10% trichloroacetic acid (TCA) as a negative control and sham (medium with dimethyl sulfoxide; DMSO) treated cells were used as a positive control. After 72 hours post-incubation, medium was removed and cells were fixed with 10% TCA at 4° C. for 1 hour. TCA was removed and cells were washed with cold tap water, and plate was air-dried, followed by addition of 50 μl of 0.4% SRB staining solution to each well. After 30 minutes incubation, SRB staining solution was removed. Cells were washed with 1% acetic acid solution, and then washed with tap water to remove unbound staining solution, followed by air-drying. 200 μl of 10 mM (pH10.5) trizma base buffer was added to each well to solubilise macromolecules. SRB stained macromolecules were determined at a 540 nm wavelength using an automated plate reader (Synergy H4 Hybrid Multi-Mode Microplate Reader, BioTek, Winooski, Vt.). Cell growth (inhibition) was calculated by the following formula: […]

Body weight analysis = type: in vivo; settings: ATH490 athymic mice; D0-D30
Method: Animals were monitored for food and water consumption every day, and their body weights and tumor volumes were measured twice per week. Tumor volumes were measured with a digital caliper and were determined by using the following formula: ½ length×width^2. Blood samples were collected via cardiac puncture and processed further for ALT and AST measurements. The animals were then immediately euthanized by carbon dioxide. Tumors and vital organs (spleen, kidney, liver and lung) were collected and fixed in 10% buffered formalin at 4° C. overnight before being processed for paraffin embedding. The paraffin-embedded blocks were then cut into 4-5 μm thick sections. Each section of tumors and organs was stained with hematoxylin and eosin (H&E).
Changes in body weight, hemoglobin (Hb) and the amount and ratio of alanine transaminase (ALT)/aspartate transaminase (AST) were used to measure toxic effects. In addition, vital organs (liver, spleen, kidney and lung) were analyzed by […] after they were harvested, fixed, processed, paraffin-embedded, sectioned, and stained as described above.
. Six-week old ATH40 athymic nude mice were treated as indicated in the legend. “Tax” denotes that paclitaxel was injected by i.v. as described in Table 11. D0-D30 denotes day 0 to day 30 post-drug treatment. The numbers in brackets show drug concentrations in mg/kg body weight. […]

MCF10AT1 = assay: SRB cell viability, isogenic breast cell lines; type: cell-based; settings: 0.39 μM, 72 hours
Method: as §1, §2, §3

SMILES: CCOc1ccccc1C(=O)/C=C/c1cc2ccccc2[nH]c1=O [CTR-32, (E)-3-(3-(2-ethoxyphenyl)-3-oxoprop-1-enyl)quinolin-2(1H)-one]
- viability at 72 h, 0.03125 µM [1]: 70%

SMILES: COc1ccccc1C(=O)/C=C/c1cc2ccccc2[nH]c1=O [CTR-17, (E)-3-(3-(2-Methoxyphenyl)-3-oxoprop-1-enyl)quinolin-2(1H)-one]
- toxic side effect as determined by the changes in body weights (Body weight analysis): Neither CTR-17 nor CTR-20 caused any notable toxic side effect
- Cell survival rate (MCF10AT1): 60%

SMILES: COc1ccc2[nH]c(=O)c(/C=C/C(=O)c3ccccc3OC)cc2c1 [CTR-20, (E)-6-Methoxy-3-(3-(2-methoxyphenyl)-3-oxoprop-1-enyl) quinolin-2(1H)-one]
- toxic side effect as determined by the changes in body weights (Body weight analysis): Neither CTR-17 nor CTR-20 caused any notable toxic side effect
- Cell survival rate (MCF10AT1): 20%

SMILES: COc1ccccc1C(=O)/C=C/c1cc2cccc(OC)c2[nH]c1=O [CTR-21, (E)-8-methoxy-3-(3-(2-methoxyphenyl)-3-oxoprop-1-enyl) quinolin-2(1H)-one]
- viability at 72 h, 0.03125 µM [1]: 24%
